Test results reported in PubChem BioAssay AID1963836 (Molecular Pharmacology Branch, DTP, NCI, 2024).

Tested on: 857933-349-R-J2-PDC complex spheroid viability
Assay: Anticancer human tumor 857933-349-R-J2-PDC patient-derived colon adenocarcinoma cell line growth inhibition [POLQ]
Conditions: for IC50: curve of first compound; for viability, T/C: stronger effect = lower value
Method in brief: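 Patient-derived tumour cells were co-cultured with HUVEC and mesenchymal stem cells as multicellular spheroids at 37 °C. They were treated with POLQ inhibitors (novobiocin, ART-558, RP6685) alone or combined with other agents. Top concentrations were at or near clinical Cmax (otherwise 10 microM; SN-38 at 1 microM), decreasing in half-log steps.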

[1] = second compound 0.0316 µM, first compound 0.0316 µM
[2] = second compound 0.0316 µM, first compound 0.1 µM
[3] = second compound 0.0316 µM, first compound 0.316 µM
[4] = second compound 0.0316 µM, first compound 1 µM
[5] = second compound 0.0316 µM, first compound 3.16 µM
[6] = second compound 0.0316 µM, first compound 10 µM
[7] = second compound 0.1 µM, first compound 0.0316 µM
[8] = second compound 0.1 µM, first compound 0.1 µM
[9] = second compound 0.1 µM, first compound 0.316 µM
[10] = second compound 0.1 µM, first compound 1 µM
[11] = second compound 0.1 µM, first compound 3.16 µM
[12] = second compound 0.1 µM, first compound 10 µM
[13] = second compound 0.316 µM, first compound 0.0316 µM
[14] = second compound 0.316 µM, first compound 0.1 µM
[15] = second compound 0.316 µM, first compound 0.316 µM
[16] = second compound 0.316 µM, first compound 1 µM
[17] = second compound 0.316 µM, first compound 3.16 µM
[18] = second compound 0.316 µM, first compound 10 µM
[19] = second compound 1 µM, first compound 0.0316 µM
[20] = second compound 1 µM, first compound 0.1 µM
[21] = second compound 1 µM, first compound 0.316 µM
[22] = second compound 1 µM, first compound 1 µM
[23] = second compound 1 µM, first compound 3.16 µM
[24] = second compound 1 µM, first compound 10 µM
[25] = second compound 3.16 µM, first compound 0.0316 µM
[26] = second compound 3.16 µM, first compound 0.1 µM
[27] = second compound 3.16 µM, first compound 0.316 µM
[28] = second compound 3.16 µM, first compound 1 µM
[29] = second compound 3.16 µM, first compound 3.16 µM
[30] = second compound 3.16 µM, first compound 10 µM
[31] = second compound 10 µM, first compound 0.0316 µM
[32] = second compound 10 µM, first compound 0.1 µM
[33] = second compound 10 µM, first compound 0.316 µM
[34] = second compound 10 µM, first compound 1 µM
[35] = second compound 10 µM, first compound 3.16 µM
[36] = second compound 10 µM, first compound 10 µM
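Further: spheroids exposed to compounds for seven days before readout.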

SMILES: CC1COCCN1c1cc(C2(S(C)(=N)=O)CC2)nc(-c2ccnc3[nH]ccc23)n1 (stereo not drawn) + Nc1ccc(C#CCN(C(=O)Cc2ncc(C(F)(F)F)cc2C(F)(F)F)c2ccc(F)cc2)nn1
- IC50 (second compound 0.0316 µM): 6.27 µM
- IC50 (second compound 0.1 µM): 7.41 µM
- IC50 (second compound 0.316 µM): 6.97 µM
- IC50 (second compound 1 µM): 6.44 µM
- IC50 (second compound 3.16 µM): 6.95 µM
- IC50 (second compound 10 µM): > 10 µM
- viability, T/C [1]: 85.9%
- viability, T/C [2]: 110%
- viability, T/C [3]: 107%
- viability, T/C [4]: 81.7%
- viability, T/C [5]: 60.8%
- viability, T/C [6]: 43.2%
- viability, T/C [7]: 95.3%
- viability, T/C [8]: 104%
- viability, T/C [9]: 88.8%
- viability, T/C [10]: 79%
- viability, T/C [11]: 63.4%
- viability, T/C [12]: 45.3%
- viability, T/C [13]: 108%
- viability, T/C [14]: 107%
- viability, T/C [15]: 85.4%
- viability, T/C [16]: 83.2%
- viability, T/C [17]: 64.2%
- viability, T/C [18]: 43.2%
- viability, T/C [19]: 100%
- viability, T/C [20]: 102%
- viability, T/C [21]: 90.1%
- viability, T/C [22]: 74.6%
- viability, T/C [23]: 57.6%
- viability, T/C [24]: 45.4%
- viability, T/C [25]: 96.2%
- viability, T/C [26]: 88.1%
- viability, T/C [27]: 89.3%
- viability, T/C [28]: 84.7%
- viability, T/C [29]: 59.9%
- viability, T/C [30]: 45.4%
- viability, T/C [31]: 96.5%
- viability, T/C [32]: 91.3%
- viability, T/C [33]: 93.5%
- viability, T/C [34]: 71.4%
- viability, T/C [35]: 71.1%
- viability, T/C [36]: 49.9%

SMILES: CCc1cc2c(N3CCc4c(cc(Cn5ccnc5)cc4-c4cn(C)nc4C(F)(F)F)C3=O)ccnc2c(OC)n1 + Nc1ccc(C#CCN(C(=O)Cc2ncc(C(F)(F)F)cc2C(F)(F)F)c2ccc(F)cc2)nn1
- IC50 (second compound 0.0316 µM): > 10 µM
- IC50 (second compound 0.1 µM): > 10 µM
- IC50 (second compound 0.316 µM): > 10 µM
- IC50 (second compound 1 µM): > 10 µM
- IC50 (second compound 3.16 µM): > 10 µM
- IC50 (second compound 10 µM): 6.06 µM
- viability, T/C [1]: 93.9%
- viability, T/C [2]: 96.4%
- viability, T/C [3]: 76.3%
- viability, T/C [4]: 87.7%
- viability, T/C [5]: 59.2%
- viability, T/C [6]: 59.2%
- viability, T/C [7]: 97.3%
- viability, T/C [8]: 101%
- viability, T/C [9]: 94.5%
- viability, T/C [10]: 93%
- viability, T/C [11]: 70%
- viability, T/C [12]: 58.5%
- viability, T/C [13]: 82%
- viability, T/C [14]: 86%
- viability, T/C [15]: 94.5%
- viability, T/C [16]: 84.1%
- viability, T/C [17]: 77%
- viability, T/C [18]: 55.1%
- viability, T/C [19]: 97.6%
- viability, T/C [20]: 90.2%
- viability, T/C [21]: 95.1%
- viability, T/C [22]: 77.2%
- viability, T/C [23]: 71.1%
- viability, T/C [24]: 65.3%
- viability, T/C [25]: 97.6%
- viability, T/C [26]: 89.9%
- viability, T/C [27]: 104%
- viability, T/C [28]: 83%
- viability, T/C [29]: 68.3%
- viability, T/C [30]: 62.8%
- viability, T/C [31]: 83.5%
- viability, T/C [32]: 77.3%
- viability, T/C [33]: 79.6%
- viability, T/C [34]: 75.7%
- viability, T/C [35]: 54.4%
- viability, T/C [36]: 46.6%

SMILES: COc1ccc([C@@H](O)c2cc(-c3ncnc4cc(N5CCOCC5)ccc34)c(F)cc2Cl)nn1 + Nc1ccc(C#CCN(C(=O)Cc2ncc(C(F)(F)F)cc2C(F)(F)F)c2ccc(F)cc2)nn1
- IC50 (second compound 0.0316 µM): > 10 µM
- IC50 (second compound 0.1 µM): > 10 µM
- IC50 (second compound 0.316 µM): 9.69 µM
- IC50 (second compound 1 µM): > 10 µM
- IC50 (second compound 3.16 µM): > 10 µM
- IC50 (second compound 10 µM): > 10 µM
- viability, T/C [1]: 86.3%
- viability, T/C [2]: 104%
- viability, T/C [3]: 103%
- viability, T/C [4]: 92.6%
- viability, T/C [5]: 77.2%
- viability, T/C [6]: 56.2%
- viability, T/C [7]: 91.4%
- viability, T/C [8]: 100%
- viability, T/C [9]: 96.8%
- viability, T/C [10]: 84.3%
- viability, T/C [11]: 78.6%
- viability, T/C [12]: 60.8%
- viability, T/C [13]: 84.6%
- viability, T/C [14]: 91.2%
- viability, T/C [15]: 81.2%
- viability, T/C [16]: 94.7%
- viability, T/C [17]: 80.7%
- viability, T/C [18]: 48.7%
- viability, T/C [19]: 96.8%
- viability, T/C [20]: 89.3%
- viability, T/C [21]: 93.4%
- viability, T/C [22]: 76.6%
- viability, T/C [23]: 84.5%
- viability, T/C [24]: 59.6%
- viability, T/C [25]: 88.2%
- viability, T/C [26]: 95.8%
- viability, T/C [27]: 86.5%
- viability, T/C [28]: 84.1%
- viability, T/C [29]: 75.3%
- viability, T/C [30]: 60%
- viability, T/C [31]: 99.9%
- viability, T/C [32]: 89.8%
- viability, T/C [33]: 95.3%
- viability, T/C [34]: 76.3%
- viability, T/C [35]: 76.8%
- viability, T/C [36]: 51.6%

SMILES: O=C(Nc1ccc(O)c(NS(=O)(=O)c2ccc(F)cc2)c1)c1ccc(-c2ccccc2)cc1 + Nc1ccc(C#CCN(C(=O)Cc2ncc(C(F)(F)F)cc2C(F)(F)F)c2ccc(F)cc2)nn1
- IC50 (second compound 0.0316 µM): > 10 µM
- IC50 (second compound 0.1 µM): > 10 µM
- IC50 (second compound 0.316 µM): > 10 µM
- IC50 (second compound 1 µM): > 10 µM
- IC50 (second compound 3.16 µM): > 10 µM
- IC50 (second compound 10 µM): > 10 µM
- viability, T/C [1]: 95.1%
- viability, T/C [2]: 108%
- viability, T/C [3]: 103%
- viability, T/C [4]: 111%
- viability, T/C [5]: 110%
- viability, T/C [6]: 92%
- viability, T/C [7]: 90.1%
- viability, T/C [8]: 96.6%
- viability, T/C [9]: 97%
- viability, T/C [10]: 103%
- viability, T/C [11]: 119%
- viability, T/C [12]: 103%
- viability, T/C [13]: 84.2%
- viability, T/C [14]: 98.8%
- viability, T/C [15]: 91.2%
- viability, T/C [16]: 102%
- viability, T/C [17]: 110%
- viability, T/C [18]: 98.8%
- viability, T/C [19]: 90.7%
- viability, T/C [20]: 106%
- viability, T/C [21]: 101%
- viability, T/C [22]: 97.9%
- viability, T/C [23]: 89.7%
- viability, T/C [24]: 94.2%
- viability, T/C [25]: 97%
- viability, T/C [26]: 96.2%
- viability, T/C [27]: 104%
- viability, T/C [28]: 85.1%
- viability, T/C [29]: 104%
- viability, T/C [30]: 99.7%
- viability, T/C [31]: 103%
- viability, T/C [32]: 105%
- viability, T/C [33]: 98.6%
- viability, T/C [34]: 107%
- viability, T/C [35]: 90.8%
- viability, T/C [36]: 113%
